Measurements as given in US20220119354A1, “DIAMINO-SUBSTITUTED PYRIDINES AND PYRIMIDINES AS HERBICIDES” (FMC Corporation, priority 2019, published 2022).

Columns and labels:
Format in all cases: in vivo
[1] = system: barnyardgrass (Echinochloa crus-galli); experiment: Test A preemergence, barnyardgrass; conditions: 0 to 100 scale; for Barnyardgrass plant response rating: 0 is no effect, 100 is complete control
Procedure, shortened: (§1)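 Greenhouse pot test, loam/sand soil. Pre: directed soil spray at planting; post: foliar spray at 1–2 leaf stage (2–10 cm). Chemical in non-phytotoxic solvent + surfactant. Visual rating ~10 d, 0 = no effect, 100 = complete control.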

kochia (Kochia scoparia) [2] = experiment: Test A preemergence, kochia; conditions: 0 to 100 scale; for Kochia plant response rating: 0 is no effect, 100 is complete control
Procedure, shortened: as §1

[3] = system: ragweed (common ragweed, Ambrosia elatior); experiment: Test A preemergence, ragweed; conditions: 0 to 100 scale; for Ragweed plant response rating: 0 is no effect, 100 is complete control
Procedure, shortened: as §1

[4] = system: ryegrass, Italian (Lolium multiflorum); experiment: Test A preemergence, Italian ryegrass; conditions: 0 to 100 scale; for Ryegrass, Italian plant response rating: 0 is no effect, 100 is complete control
Procedure, shortened: as §1

[5] = system: foxtail, giant (Setaria faberii); experiment: Test A preemergence, giant foxtail; conditions: 0 to 100 scale; for Foxtail, Giant plant response rating: 0 is no effect, 100 is complete control
Procedure, shortened: as §1

[6] = system: pigweed (Amaranthus retroflexus); experiment: Test A preemergence, pigweed; conditions: 0 to 100 scale; for Pigweed plant response rating: 0 is no effect, 100 is complete control
Procedure, shortened: as §1

[7] = system: barnyardgrass (Echinochloa crus-galli); experiment: Test A postemergence, barnyardgrass; conditions: 0 to 100 scale
Procedure, shortened: as §1

kochia (Kochia scoparia) [8] = experiment: Test A postemergence, kochia; conditions: 0 to 100 scale
Procedure, shortened: as §1

[9] = system: ragweed (common ragweed, Ambrosia elatior); experiment: Test A postemergence, ragweed; conditions: 0 to 100 scale
Procedure, shortened: as §1

[10] = system: ryegrass, Italian (Lolium multiflorum); experiment: Test A postemergence, Italian ryegrass; conditions: 0 to 100 scale
Procedure, shortened: as §1

[11] = system: foxtail, giant (Setaria faberii); experiment: Test A postemergence, giant foxtail; conditions: 0 to 100 scale
Procedure, shortened: as §1

[12] = system: pigweed (Amaranthus retroflexus); experiment: Test A postemergence, pigweed; conditions: 0 to 100 scale
Procedure, shortened: as §1

[13] = system: wheat (Triticum aestivum); experiment: Test A postemergence, wheat; conditions: 0 to 100 scale
Procedure, shortened: as §1

corn (Zea mays) = experiment: Test A postemergence, corn; conditions: 0 to 100 scale
Procedure, shortened: as §1

[14] = system: blackgrass (Alopecurus myosuroides); experiment: Test A postemergence, blackgrass; conditions: 0 to 100 scale
Procedure, shortened: as §1

[15] = system: galium (catchweed bedstraw, Galium aparine); experiment: Test A postemergence, galium; conditions: 0 to 100 scale
Procedure, shortened: as §1

rice (Oryza sativa) = experiment: Test B flooded paddy test, rice; conditions: Flood, 250 g ai/ha, applied to paddy water, 2-leaf stage, visual evaluation after 13 to 15 d
Procedure, shortened: (§2)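 Rating: 0 = no effect, 100 = complete control, visual, relative to untreated plants. Conditions: 2-leaf stage, 3 cm flood kept constant, compound put directly into water, 13–15 d greenhouse.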

[16] = system: sedge, umbrella (small-flower umbrella sedge, Cyperus difformis); experiment: Test B flooded paddy test, umbrella sedge; conditions: Flood, 250 g ai/ha, applied to paddy water, 2-leaf stage, visual evaluation after 13 to 15 d
Procedure, shortened: as §2

[17] = system: ducksalad (Heteranthera limosa); experiment: Test B flooded paddy test, ducksalad; conditions: Flood, 250 g ai/ha, applied to paddy water, 2-leaf stage, visual evaluation after 13 to 15 d
Procedure, shortened: as §2

[18] = system: barnyardgrass (Echinochloa crus-galli); experiment: Test B flooded paddy test, barnyardgrass; conditions: Flood, 250 g ai/ha, applied to paddy water, 2-leaf stage, visual evaluation after 13 to 15 d
Procedure, shortened: as §2

| Compound | Plant response rating, Barnyardgrass ([1]; 500 g ai/ha) | Plant response rating, Kochia (kochia (Kochia scoparia) [2]; 500 g ai/ha) | Plant response rating, Ragweed ([3]; 500 g ai/ha) | Plant response rating, Ryegrass, Italian ([4]; 500 g ai/ha) | Plant response rating, Foxtail, Giant ([5]; 500 g ai/ha) | Plant response rating, Pigweed ([6]; 500 g ai/ha) | Plant response rating, Barnyardgrass ([7]; 125 g ai/ha) | Plant response rating, Barnyardgrass ([7]; 500 g ai/ha) | Plant response rating, Kochia (kochia (Kochia scoparia) [8]; 125 g ai/ha) | Plant response rating, Kochia (kochia (Kochia scoparia) [8]; 500 g ai/ha) | Plant response rating, Ragweed ([9]; 125 g ai/ha) | Plant response rating, Ragweed ([9]; 500 g ai/ha) | Plant response rating, Ryegrass, Italian ([10]; 125 g ai/ha) | Plant response rating, Ryegrass, Italian ([10]; 500 g ai/ha) | Plant response rating, Foxtail, Giant ([11]; 125 g ai/ha) | Plant response rating, Foxtail, Giant ([11]; 500 g ai/ha) | Plant response rating, Pigweed ([12]; 125 g ai/ha) | Plant response rating, Pigweed ([12]; 500 g ai/ha) | Plant response rating, Wheat ([13]; 125 g ai/ha) | Plant response rating, Wheat ([13]; 500 g ai/ha) | further results |
| --- | --- | --- | --- | --- | --- | --- | --- | --- | --- | --- | --- | --- | --- | --- | --- | --- | --- | --- | --- | --- | --- |
| C[C@@H](Nc1ncc(C(F)(F)F)c(N)n1)c1cc2ccc(Cl)cc2o1 [Compound 29] | 90 | 80 | 80 | 70 | 90 | 100 | 20 | 80 | 50 | 90 | 20 | 90 | 0 | 10 | 0 | 50 | 100 | 100 | 0 | 0 | Plant response rating, Barnyardgrass ([1]; 125 g ai/ha): 0; Plant response rating, Kochia (kochia (Kochia scoparia) [2]; 125 g ai/ha): 0; Plant response rating, Ragweed ([3]; 125 g ai/ha): 20; Plant response rating, Ryegrass, Italian ([4]; 125 g ai/ha): 20; Plant response rating, Foxtail, Giant ([5]; 125 g ai/ha): 60; Plant response rating, Pigweed ([6]; 125 g ai/ha): 90; Plant response rating, Corn (corn (Zea mays); 125 g ai/ha): 0; Plant response rating, Corn (corn (Zea mays); 500 g ai/ha): 10; Plant response rating, Blackgrass ([14]; 125 g ai/ha): 0; Plant response rating, Blackgrass ([14]; 500 g ai/ha): 10; Plant response rating, Galium ([15]; 125 g ai/ha): 80; Plant response rating, Galium ([15]; 500 g ai/ha): 100; Plant response rating, Rice (0 to 100 scale, 0 is no effect, 100 is complete control) (rice (Oryza sativa)): 0; Plant response rating, Sedge, Umbrella (0 to 100 scale, 0 is no effect, 100 is complete control) [16]: 0; Plant response rating, Ducksalad (0 to 100 scale, 0 is no effect, 100 is complete control) [17]: 0; Plant response rating, Barnyardgrass (0 to 100 scale, 0 is no effect, 100 is complete control) [18]: 0 |
| Cc1cccc(OCC(C)Nc2ncc(C(F)(F)F)c(N)n2)c1 (stereo not drawn) [Compound 32] | 90 | 30 | 100 | 0 | 80 | 60 | 0 | 20 | 20 | 60 | 0 | 40 | 0 | 0 | 0 | 40 | 30 | 60 | 0 | 0 | Barnyardgrass plant response rating ([1]; 125 g ai/ha): 0; Kochia plant response rating (kochia (Kochia scoparia) [2]; 125 g ai/ha): 0; Ragweed plant response rating ([3]; 125 g ai/ha): 0; Ryegrass, Italian plant response rating ([4]; 125 g ai/ha): 0; Foxtail, Giant plant response rating ([5]; 125 g ai/ha): 20; Pigweed plant response rating ([6]; 125 g ai/ha): 10; Plant response rating, Corn (corn (Zea mays); 125 g ai/ha): 0; Plant response rating, Corn (corn (Zea mays); 500 g ai/ha): 0; Plant response rating, Blackgrass ([14]; 125 g ai/ha): 0; Plant response rating, Blackgrass ([14]; 500 g ai/ha): 0; Plant response rating, Galium ([15]; 125 g ai/ha): 60; Plant response rating, Galium ([15]; 500 g ai/ha): 70; Plant response rating, Rice (0 to 100 scale, 0 is no effect, 100 is complete control) (rice (Oryza sativa)): 0; Plant response rating, Sedge, Umbrella (0 to 100 scale, 0 is no effect, 100 is complete control) [16]: 0; Plant response rating, Ducksalad (0 to 100 scale, 0 is no effect, 100 is complete control) [17]: 0; Plant response rating, Barnyardgrass (0 to 100 scale, 0 is no effect, 100 is complete control) [18]: 0 |
| CC(COc1cc(F)cc(F)c1)Nc1ncc(C(F)(F)F)c(N)n1 (stereo not drawn) [Compound 33] | 0 | 30 | 0 | 0 | 30 | 50 | 0 | 0 | 0 | 30 | 0 | 0 | 0 | 0 | 0 | 0 | 0 | 30 | 0 | 0 | Barnyardgrass plant response rating ([1]; 125 g ai/ha): 0; Kochia plant response rating (kochia (Kochia scoparia) [2]; 125 g ai/ha): 0; Ragweed plant response rating ([3]; 125 g ai/ha): 0; Ryegrass, Italian plant response rating ([4]; 125 g ai/ha): 0; Foxtail, Giant plant response rating ([5]; 125 g ai/ha): 0; Pigweed plant response rating ([6]; 125 g ai/ha): 20; Plant response rating, Corn (corn (Zea mays); 125 g ai/ha): 0; Plant response rating, Corn (corn (Zea mays); 500 g ai/ha): 0; Plant response rating, Blackgrass ([14]; 125 g ai/ha): 0; Plant response rating, Blackgrass ([14]; 500 g ai/ha): 0; Plant response rating, Galium ([15]; 125 g ai/ha): 20; Plant response rating, Galium ([15]; 500 g ai/ha): 60; Plant response rating, Rice (0 to 100 scale, 0 is no effect, 100 is complete control) (rice (Oryza sativa)): 0; Plant response rating, Sedge, Umbrella (0 to 100 scale, 0 is no effect, 100 is complete control) [16]: 25; Plant response rating, Ducksalad (0 to 100 scale, 0 is no effect, 100 is complete control) [17]: 70; Plant response rating, Barnyardgrass (0 to 100 scale, 0 is no effect, 100 is complete control) [18]: 0 |
